Assay results taken from ChEMBL document CHEMBL5113500, “New brefeldin A-cinnamic acid ester derivatives as potential antitumor agents: Design, synthesis and biological evaluation” (Eur J Med Chem, 2022).
pIC50: −log10 of the molar value. Activity calls are given as the source filed them. No cut-off for these calls is given here.

Experiments:
HepG2 [1] = test: Induction of apoptosis in human HepG2 cells assessed as necrotic cells at 0.2 uM measured after 48 hrs by Annexin V-FITC/propidium iodide staining based flow cytometry (reference value: 2.04%); format: functional
[2] = Acute toxicity in ICR mouse assessed as body weight loss at 100 mg/kg, ip measured for 6 days; format: organism-based; conditions: in vivo, 144 h, time 6 day
[3] = Acute toxicity in ICR mouse assessed as change in blood urea nitrogen level at 100 mg/kg, ip measured after 6 days; format: organism-based; conditions: in vivo, 144 h, time 6 day
[4] = MRT (0 to t) in ICR mouse at 10 mg/kg, iv; format: ADME, organism-based; conditions: in vivo
[5] = Clearance in ICR mouse at 10 mg/kg, iv; format: ADME, organism-based; conditions: in vivo
HepG2 [6] = test: Inhibition of colony formation in human HepG2 cells assessed as reduction in colony size at 0.2 to 0.8 uM treated every 3 days for 14 days by crystal violet staining based microscopy; format: functional, cell-based; conditions: dose 0.2-0.8 µM, time 14.0 day
HepG2 [7] = test: Induction of apoptosis in human HepG2 cells assessed as late apoptotic cells at 0.8 uM measured after 48 hrs by Annexin V-FITC/propidium iodide staining based flow cytometry (reference value: 1.66%); format: functional
[8] = Acute toxicity in ICR mouse assessed as change in ALP level at 100 mg/kg, ip measured after 6 days; format: organism-based; conditions: in vivo, 144 h, time 6 day
[9] = Toxicity in human HepG2 cells xenografted BALB/c nude mouse assessed as change in body weight at 5 to 10 mg/kg, ip administered once daily for 16 days measured 3 times per week during compound dosing; format: organism-based; conditions: in vivo, 384 h, dose 5-10 mg/kg, time 16 day
HepG2 [10] = test: Antiproliferative activity against human HepG2 cells measured after 72 hrs by MTT assay; format: functional, cell-based; conditions: HepG2, 72 h
HepG2 [11] = test: Cell cycle arrest in human HepG2 cells assessed as accumulation at S phase at 0.2 uM measured after 24 hrs by propidium iodide staining based flow cytometry (reference value: 32.81%); format: functional
Bel-7402 [12] = test: Cell cycle arrest in human Bel-7402 cells assessed as accumulation at S phase at 0.5 uM measured after 24 hrs by propidium iodide staining based flow cytometry (reference value: 31%); format: functional
[13] = Acute toxicity in ICR mouse assessed as change in ALT level at 100 mg/kg, ip measured after 6 days; format: organism-based; conditions: in vivo, 144 h, time 6 day
HepG2 [14] = test: Induction of apoptosis in human HepG2 cells assessed as late apoptotic cells at 0.2 uM measured after 48 hrs by Annexin V-FITC/propidium iodide staining based flow cytometry (reference value: 1.66%); format: functional
[15] = Acute toxicity in ICR mouse assessed as change in uric acid level at 100 mg/kg, ip measured after 6 days; format: organism-based; conditions: in vivo, 144 h, time 6 day
[16] = Cmax in ICR mouse at 10 mg/kg, iv; format: ADME, organism-based; design: dose 10 mg/kg, route iv; conditions: in vivo
HepG2 [17] = test: Induction of apoptosis in human HepG2 cells assessed as viable cells at 0.8 uM measured after 48 hrs by Annexin V-FITC/propidium iodide staining based flow cytometry (reference value: 94.5%); format: functional; conditions: read-out: Activity
HepG2 [18] = test: Induction of apoptosis in human HepG2 cells assessed as viable cells at 0.4 uM measured after 48 hrs by Annexin V-FITC/propidium iodide staining based flow cytometry (reference value: 94.5%); format: functional; conditions: read-out: Activity
HepG2 [19] = test: Induction of apoptosis in human HepG2 cells assessed as necrotic cells at 0.8 uM measured after 48 hrs by Annexin V-FITC/propidium iodide staining based flow cytometry (reference value: 2.04%); format: functional
HepG2 [20] = test: Cell cycle arrest in human HepG2 cells assessed as accumulation at G1 phase at 0.8 uM measured after 24 hrs by propidium iodide staining based flow cytometry (reference value: 42.27%); format: functional
HepG2 [21] = test: Induction of apoptosis in human HepG2 cells measured after 48 hrs by Annexin V-FITC/propidium iodide staining based flow cytometry; format: functional, cell-based; conditions: dose 0.2-0.8 µM, DDE = dose-dependent effect
Bel-7402 [22] = test: Cell cycle arrest in human Bel-7402 cells assessed as accumulation at S phase at 1 uM measured after 24 hrs by propidium iodide staining based flow cytometry (reference value: 31%); format: functional
HepG2 [23] = test: Antitumor activity against human HepG2 cells xenografted in BALB/c nude mouse assessed as reduction in Ki-67 expression at 5 to 10 mg/kg, ip administered once daily for 16 days measured post-last dose by immunohistochemical analysis; format: functional, organism-based; conditions: dose 5-10 mg/kg, time 16.0 day
HepG2 [24] = test: Antitumor activity against human HepG2 cells xenografted in BALB/c nude mouse assessed as tumor growth inhibition at 10 mg/kg, ip administered once daily for 16 days relative to control; format: functional; conditions: HepG2, 384 h, time 16 day, read-out: TGI
[25] = Acute toxicity in ICR mouse assessed as pathological change in kidney at 100 mg/kg, ip measured after 6 days; format: organism-based; conditions: in vivo, 144 h, time 6 day
[26] = Selectivity index, ratio of IC50 for human L02 cells to IC50 for human HepG2 cells; format: toxicity; conditions: L02 cells and HepG2 cells, read-out: Ratio IC50
ECa-109 cell line = test: Antiproliferative activity against human Eca-109 cells measured after 72 hrs by MTT assay; format: functional, cell-based; conditions: ECa-109, 72 h
[27] = Cytotoxicity against human L02 cells measured after 72 hrs by MTT assay; format: toxicity, cell-based
HepG2 [28] = test: Induction of apoptosis in human HepG2 cells assessed as early apoptotic cells at 0.2 uM measured after 48 hrs by Annexin V-FITC/propidium iodide staining based flow cytometry (reference value: 1.81%); format: functional
HepG2 [29] = test: Antitumor activity against human HepG2 cells xenografted in BALB/c nude mouse assessed as tumor growth inhibition at 5 mg/kg, ip administered once daily for 16 days relative to control; format: functional; conditions: HepG2, 384 h, time 16 day, read-out: TGI
Bel-7402 [30] = test: Cell cycle arrest in human Bel-7402 cells assessed as accumulation at G2/M phase at 2 uM measured after 24 hrs by propidium iodide staining based flow cytometry (reference value: 30.29%); format: functional
[31] = Acute toxicity in ICR mouse assessed as pathological change in spleen at 100 mg/kg, ip measured after 6 days; format: organism-based; conditions: in vivo, 144 h, time 6 day
HepG2 [32] = test: Cell cycle arrest in human HepG2 cells assessed as accumulation at G2/M phase at 0.8 uM measured after 24 hrs by propidium iodide staining based flow cytometry (reference value: 19.93%); format: functional
Bel-7402 [33] = test: Cell cycle arrest in human Bel-7402 cells assessed as accumulation at G1 phase at 2 uM measured after 24 hrs by propidium iodide staining based flow cytometry (reference value: 38.72%); format: functional
Bel-7402 [34] = test: Inhibition of colony formation in human Bel-7402 cells at 2 uM treated every 3 days for 14 days by crystal violet staining based assay; format: functional, cell-based; conditions: time 14.0 day
Bel-7402 [35] = test: Cell cycle arrest in human Bel-7402 cells assessed as accumulation at G1 phase at 1 uM measured after 24 hrs by propidium iodide staining based flow cytometry (reference value: 38.72%); format: functional
PANC-1 = test: Antiproliferative activity against human PANC-1 cells measured after 72 hrs by MTT assay; format: functional, cell-based; conditions: PANC-1, 72 h
[36] = Acute toxicity in ICR mouse assessed as pathological change in lung at 100 mg/kg, ip measured after 6 days; format: organism-based; conditions: in vivo, 144 h, time 6 day
[37] = Volume of distribution at steady state in ICR mouse at 10 mg/kg, iv; format: ADME, organism-based; conditions: in vivo, read-out: Vdss

Compound: C[C@H]1CCC/C=C/[C@@H]2C[C@H](O)C[C@H]2[C@H](OC(=O)/C=C/c2ccc(N(C)C)cc2)/C=C/C(=O)O1
- Activity (HepG2 [1]): 28.85%
- Activity [2]: Toxic
- Activity [3]: Non-Toxic
- MRT last [4]: 19.2 min
- clearance [5]: 42.5 mL/min/kg
- inhibition (HepG2 [6]): Active
- Activity (HepG2 [7]): 4.24%
- Activity [8]: Non-Toxic
- Activity [9]: Non-Toxic
- pIC50 (HepG2 [10]): 6.54
- Activity (HepG2 [11]): 29.24%
- Activity (Bel-7402 [12]): 21.14%
- Activity [13]: Non-Toxic
- Activity (HepG2 [14]): 3.05%
- Activity [15]: Non-Toxic
- Cmax [16]: 14400 ng/mL
- viability at 0.8 µM (HepG2 [17]): 54.4%
- viability at 0.4 µM (HepG2 [18]): 53.1%
- Activity (HepG2 [19]): 39.85%
- Activity (HepG2 [20]): 60.9%
- Activity (HepG2 [21]): Dde
- Activity (Bel-7402 [22]): 19.59%
- Activity (HepG2 [23]): Active
- inhibition in vivo at 10 mg/kg (HepG2 [24]): 46.2%
- Activity [25]: Non-Toxic
- selectivity ratio [26]: 9.69
- pIC50 (ECa-109 cell line): 5.75
- IC50 at 72 h [27]: 2810 nM
- Activity (HepG2 [28]): 2.03%
- inhibition in vivo at 5 mg/kg (HepG2 [29]): 34.3%
- Activity (Bel-7402 [30]): 18.82%
- Activity [31]: Non-Toxic
- Activity (HepG2 [32]): 15.85%
- Activity (Bel-7402 [33]): 60.5%
- inhibition (Bel-7402 [34]): Active
- Activity (Bel-7402 [35]): 54.21%
- pIC50 (PANC-1): 6.19
- Activity [36]: Non-Toxic
- Vd [37]: 0.852 L/kg
